According to patent publication US20130183257A1, “COMPOSITIONS AND METHODS FOR IMPROVING SKIN APPEARANCE” (SYTHEON LTD., priority 2009, published 2013):
Marks after values point to notes of the source that are not given here.

Experiment: Solubility study of solid ingredients in DOI and co-solvent
Type: physicochemical
Procedure: Noting the surprising ease with which the various phases incorporating the DOI were prepared, a study was conducted to evaluate whether the DOI was acting as or solvent for or aiding in the solubility of certain of the solid ingredients with which it was combined. In this particular evaluation, the solubility of two solid sunscreen actives, butyl methoxydibenzoylmethane (avobenzone) and benzophenone-3 (“BP3”), and another solid cosmetic active, hexylresorcinol (“HR”) were evaluated in DOI. Additionally, the solubility of avobenzone was further evaluated in C12-C15 alkylbenzoate (“AB”) and in the combination of DOI and C12-C15 alkylbenzoate (70:30)—avobenzone being the sunscreen active and C12-C15 alkylbenzoate a co-solvent of the Sunscreen Formulation of Example 5C above. Each solution was prepared by warming 10 grams of the solvents to ˜45° C., adding the avobenzone and stirring the mixture for at least 20 min to make sure the all of the solid is solubilized. The solutions were then allowed to stand at room temp (˜25 C) and then visually examined for signs of crystal formation at 18 hours and 24 hours. Percent solubility was then calculated.

[1] = room temp (~25 C), visual examination

With C12-C15 alkylbenzoate [AB] the “Solubility of Avobenzone in the solvent” value (dissolved at ~45° C., standing at room temp (~25 C)) was 23%*, the “Avobenzone crystal formation, 18 hours” value [1] was “yes” and the “Avobenzone crystal formation, 24 hours” value [1] was “yes”.
